Data on eleven molecules can be found in patent US7538131B2, “2-{-3-′2-(phenyl)-oxazol-4-ylmethoxymethyl-cyclohexylmethoxy}-propionic acid derivatives useful as peroxisome proliferator-activated receptor (PPAR) ligands for the treatment of hyperlipidemia and diabetes” (Sanofi-Aventis Deutschland GmbH, priority 2004, dated 2009).

Assay [1] deals with T1, human PPARalpha (Homo sapiens, UniProt Q07869).
T1 construct: human PPARalpha receptor (amino acids S167-Y468); expressed in transfected cells; host or cells: HEK cells (stably transfected, pcDNA3, CMV promoter)
T1 sequence (Q07869 167-468): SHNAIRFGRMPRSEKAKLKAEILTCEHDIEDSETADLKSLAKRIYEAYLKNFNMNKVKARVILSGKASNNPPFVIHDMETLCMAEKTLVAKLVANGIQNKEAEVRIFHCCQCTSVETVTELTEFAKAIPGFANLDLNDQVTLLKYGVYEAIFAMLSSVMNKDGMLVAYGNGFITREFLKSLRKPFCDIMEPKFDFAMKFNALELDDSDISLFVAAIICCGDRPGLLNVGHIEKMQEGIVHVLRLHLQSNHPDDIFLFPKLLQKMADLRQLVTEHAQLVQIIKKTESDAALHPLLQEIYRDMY
The experiment in a line: Cellular PPARalpha assay (stably transfected HEK luciferase reporter cell line). Format: cell-based. The following applies: GR-GAL4-humanPPARalpha-LBD, 24 h. On the procedure:
1) Determination of EC50 Values of PPAR Agonists in the Cellular PPARalpha Assay
The activity of the novel compounds of the present invention was tested as follows The potency of substances which bind to human PPARalpha and activate it in an agonistic manner is analyzed using a stably transfected HEK cell line (HEK=human embryo kidney) which is referred to here as PPARalpha reporter cell line. It contained two genetic elements, a luciferase reporter element (pdeltaM-GAL4-Luc-Zeo) and a PPARalpha fusion protein (GR-GAL4-humanPPARalpha-LBD) which mediates expression of the luciferase reporter element depending on a PPARalpha ligand. The stably and constitutively expressed fusion protein GR-GAL4-humanPPARalpha-LBD binds in the cell nucleus of the PPARalpha reporter cell line via the GAL4 protein portion to the GAL4 DNA binding motifs 5′-upstream of the luciferase reporter element which was stably integrated in the genome of the cell line. There is only little expression of the luciferase reporter gene without addition of a PPARalpha ligand if fatty acid-depleted fetal calf serum (cs-FCS) is used in the assay. PPARalpha ligands bind and activate the PPARalpha fusion protein and thereby bring about expression of the luciferase reporter gene. The luciferase which is formed can be detected by means of chemiluminescence via an appropriate substrate.
The PPARalpha reporter cell line was prepared in two steps. Firstly, the luciferase reporter element was constructed and stably transfected into HEK cells. For this purpose, five binding sites of the yeast transcription factor GAL4 (in each case 5′-CGGAGTACTGTCCTCCGAG-3′) were cloned in 5′-upstream of a 68 bp-long minimal MMTV promoter (Genbank Accession #V01175). The minimal MMTV promoter section contains a CCAAT box and a TATA element in order to enable efficient transcription by RNA polymerase II. The cloning and sequencing of the GAL4-MMTV construct took place in analogy to the description of Sambrook J. et. al. (Molecular Cloning, Cold Spring Harbor Laboratory Press, 1989). Which is hereby incorporated by reference herein.
The complete Photinus pyralis luciferase gene (Genbank Accession #M15077) was cloned in 3′-downstream of the GAL4-MMTV element. After sequencing, the luciferase reporter element consisting of five GAL4 binding sites, MMTV promoter and luciferase gene was subcloned into a plasmid which confers zeozin resistance in order to obtain the plasmid pdeltaM-GAL4-Luc-Zeo. This vector was transfected into HEK cells in accordance with the statements in Ausubel, F.M. et al. (Current Protocols in Molecular Biology, Vol. 1-3, John Wiley & Sons, Inc., 1995).
In a second step, the PPARalpha fusion protein (GR-GAL4-humanPPARalpha-LBD) was introduced into the stable cell clone described. For this purpose, initially the cDNA coding for the N-terminal 76 amino acids of the glucocorticoid receptor (Genbank Accession # P04150) was linked to the cDNA section coding for amino acids 1-147 of the yeast transcription factor GAL4 (Genbank Accession #P04386). The cDNA of the ligand-binding domain of the human PPARalpha receptor (amino acids S167-Y468; Genbank Accession #S74349) was cloned in at the 3′ end of this GR-GAL4 construct. The fusion construct prepared in this way (GR-GAL4-humanPPARalpha-LBD) was subcloned into the plasmid pcDNA3 (from Invitrogen) in order to enable constitutive expression therein by the cytomegalovirus promoter. This plasmid was linearized with a restriction endonuclease and stably transfected into the previously described cell clone containing the luciferase reporter element. The finished PPARalpha reporter cell line which contains a luciferase reporter element and constitutively expresses the PPARalpha fusion protein (GR-GAL4-humanPPARalpha-LBD) was isolated by selection with zeozin (0.5 mg/ml) and G418 (0.5 mg/ml).
The activity of PPARalpha agonists was determined in a 3-day assay which is described below: […]
A general note: A reporter such as luciferase makes a cellular process visible.

The target in assay [2] is T2, human PPARgamma (Homo sapiens, UniProt P37231).
T2 construct: human PPARgamma receptor (amino acids 1152-Y475); expressed in transfected cells; host or cells: HEK cells (transiently transfected, pcDNA3-GAL4-humanPPARgammaLBD)
T2 sequence (P37231 182-477 isoform P37231-2 limits assumed): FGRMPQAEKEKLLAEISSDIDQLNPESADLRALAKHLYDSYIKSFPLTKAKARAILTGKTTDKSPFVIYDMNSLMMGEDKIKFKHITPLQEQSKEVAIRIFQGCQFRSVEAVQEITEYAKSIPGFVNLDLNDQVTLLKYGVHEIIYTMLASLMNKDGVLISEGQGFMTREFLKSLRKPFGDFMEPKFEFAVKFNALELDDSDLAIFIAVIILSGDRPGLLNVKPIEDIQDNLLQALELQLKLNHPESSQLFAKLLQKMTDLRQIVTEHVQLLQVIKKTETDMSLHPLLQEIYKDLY
Put plainly: Cellular PPARgamma assay (transiently transfected HEK cells, luciferase reporter). It counts as cell-based. The settings on record: GAL4-humanPPARgammaLBD, firefly/Renilla luciferase ratio, 48 h. From the text: 4) Determination of EC50 Values of PPAR Agonists in the Cellular PPARgamma Assay
A transient transfection system is employed to determine the cellular PPARgamma activity of PPAR agonists. It is based on the use of a luciferase reporter plasmid (pGL3basic-5xGAL4-TK) and of a PPARgamma expression plasmid (pcDNA3-GAL4-humanPPARgammaLBD). Both plasmids are transiently transfected into human embryonic kidney cells (HEK cells). There is then expression in these cells of the fusion protein GAL4-humanPPARgammaLBD which binds to the GAL4 binding sites of the reporter plasmid. In the presence of a PPARgamma-active ligand, the activated fusion protein GAL4-humanPPARgammaLBD induces expression of the luciferase reporter gene, which can be detected in the form of a chemiluminescence signal after addition of a luciferase substrate. As a difference from the stably transfected PPARalpha reporter cell line, in the cellular PPARgamma assay the two components (luciferase reporter plasmid and PPARgamma expression plasmid) are transiently transfected into HEK cells because stable and permanent expression of the PPARgamma fusion protein is cytotoxic.
The luciferase reporter plasmid pGL3basic-5xGAL4-TK is based on the vector pGL3basic from Promega. The reporter plasmid is prepared by cloning five binding sites of the yeast transcription factor GAL4 (each binding site with the sequence 5′-CTCGGAGGACAGTACTCCG-3′), together with a 160 bp-long thymidine kinase promoter section (Genbank Accession #AF027128) 5′-upstream into pGL3basic. 3′-downstream of the thymidine kinase promoter is the complete luciferase gene from Photinus pyralis (Genbank Accession # Ml 5077), which is already a constituent of the plasmid pGL3basic used. The cloning and sequencing of the reporter plasmid pGL3basic-5xGAL4-TK took place in analogy to the description in Sambrook J. et. al. (Molecular cloning, Cold Spring Harbor Laboratory Press, 1989).
The PPARgamma expression plasmid pcDNA3-GAL4-humanPPARgammaLBD was prepared by first cloning the cDNA coding for amino acids 1-147 of the yeast transcription factor GAL4 (Genbank Accession #P04386) into the plasmid pcDNA3 (from Invitrogen) 3′-downstream of the cytomegalovirus promoter. Subsequently, the cDNA of the ligand-binding domain (LBD) of the human PPARgamma receptor (amino acids […]; Accession #g1480099) 3′-downstream of the GAL4 DNA binding domain was cloned. Cloning and sequencing of the PPARgamma expression plasmid pcDNA3-GAL4-humanPPARgammaLBD again took place in analogy to the description in Sambrook J. et. al. (Molecular cloning, Cold Spring Harbor Laboratory Press, 1989). Besides the luciferase reporter plasmid pGL3basic-5xGAL4-TK and the PPARgamma expression plasmid pcDNA3-GAL4-humanPPARgammaLBD, also used for the cellular PPARgamma assay are the reference plasmid pRL-CMV (from Promega) and the plasmid pBluescript SK(+) from Stratagene. All four plasmids were prepared using a plasmid preparation kit from Qiagen, which ensured a plasmid quality with a minimal endotoxin content, before transfection into HEK cells.
The activity of PPARgamma agonists is determined in a 4-day assay which is described below. Before the transfection, HEK cells were cultivated in DMEM medium (#41965-039, Invitrogen) which was mixed with the following additions: 10% FCS (#16000-044, Invitrogen),1% penicillin-streptomycin solution (#15140-122, Invitrogen) and 2 mM L-glutamine (#25030-024, Invitrogen).
Solution A, a transfection mixture which contains all four plasmids previously described in addition to DMEM medium, was prepared. […]

pEC50: −log10 of the molar value. A value given as a limit tells only on which side of the number the result lay.

Usually pEC50 stands for −log10 of the EC50, conventionally taken in molar units. As for `CC(C)Cc1ccc(-c2nc(COC[C@H]3CCC[C@@H](COC(C)(C)C(=O)O)C3)c(C(C)C)o2)cc1` [Example 17, 2-{(1R,3S)-3-[2-(4-Isobutylphenyl)-5-isopropyloxazol-4-ylmethoxymethyl]cyclohexylmethoxy}-2-methylpropionic acid], the negative logarithm of the EC50 (pEC50) in assay [1] is 7.38; in assay [2], 6.96.

Turning to `CC(C)c1oc(-c2cccc(C(F)(F)F)c2)nc1COC[C@H]1CCC[C@@H](COC(C)(C)C(=O)O)C1` [Example 16, 2-{(1R,3S)-3-[5-Isopropyl-2-(3-trifluoromethylphenyl)oxazol-4-ylmethoxymethyl]cyclohexylmethoxyl}-2-methylpropionic acid], the negative-log EC50 (pEC50) in assay [1] is 7.90; in assay [2], 6.70.

Take `Cc1oc(-c2ccc(Oc3ccccc3)cc2)nc1COC[C@H]1CCC[C@@H](COC(C)(C)C(=O)O)C1` [Example 20, 2-Methyl-2-{(1R,3S)-3-[5-methyl-2-(4-phenoxyphenyl)oxazol-4-ylmethoxymethyl]cyclohexylmethoxy}propionic acid]: the negative-log EC50 (pEC50) in assay [1] was 6.83; in assay [2] it was 7.15.

As to `CCc1oc(-c2ccc(C(F)(F)F)cc2)nc1COC[C@@H]1CCC[C@H](COC(C)(C)C(=O)O)C1` [Example 1, 2-{(1S,3R)-3-[5-Ethyl-2-(4-trifluoromethylphenyl)oxazol-4-ylmethoxymethyl]cyclohexylmethoxy}-2-methylpropionic acid], the pEC50 was 8.44 in assay [1] and 5.81 in assay [2].

Consider `CC(C)c1oc(-c2ccc(C(C)(C)C)cc2)nc1COC[C@@H]1CCC[C@H](COC(C)(C)C(=O)O)C1` [Example 9, 2-{(1S,3R)-3-[2-(4-tert-butylphenyl)-5-isopropyloxazol-4-ylmethoxymethyl]cyclohexylmethoxy}-2-methylpropionic acid], for which the negative logarithm of the EC50 (pEC50) is 7.31 in assay [1] and 6.31 in assay [2].

Regarding `CCc1oc(-c2ccc(C)c(C)c2)nc1COC[C@@H]1CCC[C@H](COC(C)(C)C(=O)O)C1` [Example 4, 2-{(1S,3R)-3-[2-(3,4-Dimethylphenyl)-5-ethyloxazol-4-ylmethoxymethyl]cyclohexylmethoxy}-2-methylpropionic acid], the pEC50 in assay [1] is 8.72; in assay [2], 6.49.

For `CC(C)c1oc(-c2ccc(C(F)(F)F)cc2)nc1COC[C@@H]1CCC[C@H](COC(C)(C)C(=O)O)C1` [Example 6, 2-{(1S,3R)-3-[5-Isopropyl-2-(4-trifluoromethylphenyl)oxazol-4-ylmethoxymethyl]cyclohexylmethoxy}-2-methylpropionic acid], the values for the pEC50 in assay [1] and in assay [2] were 7.71 and 5.73, respectively.

As for `Cc1oc(-c2ccc(C(C)C)cc2)nc1COCC1CCCC(COC(C)(C)C(=O)O)C1` (stereo not shown) [**], the negative logarithm of the EC50 (pEC50) in assay [1] was 8.89; in assay [2] it was less than 5.00.

Take `COc1cccc(-c2nc(COC[C@@H]3CCC[C@H](COC(C)(C)C(=O)O)C3)c(C(C)C)o2)c1` [Example 10, 2-{1(1S,3R)-3-[5-Isopropyl-2-(3-methoxyphenyl)oxazol-4-ylmethoxymethyl]cyclohexylmethoxy}-2-methylpropionic acid]: the pEC50 is 6.42 in assay [1] and 6.17 in assay [2].

For `CC(C)c1oc(-c2ccc(C(C)(C)C)cc2)nc1COC[C@H]1CCC[C@@H](COC(C)(C)C(=O)O)C1` [Example 18, 2-{(1R,3S)-3-[2-(4-tert-butylphenyl)-5-isopropyloxazol-4-ylmethoxymethyl]cyclohexylmethoxy}-2-methylpropionic acid], the figures for the negative logarithm of the EC50 (pEC50) in assay [1] and in assay [2] were 7.69 and 7.42, respectively.

As to `Cc1oc(-c2ccc(-c3ccccc3)cc2)nc1COC[C@H]1CCC[C@@H](COC(C)(C)C(=O)O)C1` [Example 13, 2-[(1R,3S)-3-(2-Biphenyl-4-yl-5-methyloxazol-4-ylmethoxymethyl)cyclohexylmethoxy]-2-methylpropionic acid], the figures for the negative logarithm of the EC50 (pEC50) in assay [1] and in assay [2] were 6.50 and 6.91, respectively.
